Measured values: patent EP1310250A1, “Use of the compound 2-methoxyphenyl-1-methyl-5P-methylbenzoyl-pyrrol-2-acetamido acetate for the production of an antiinflammatory drug with prevention of gastric hypersecretion and renal impairment” (MEDOSAN Ricerca S.r.l., priority 1997, dated 1999)

Experiments:
[1] = test system: gastric acid secretion; experiment: Antisecretory activity in vivo in rat, histamine-induced acid secretion
Protocol: The methods used were those described by G Coruzzi, M. Adami, C. Pozzoli, E. Poli, G. Bertaccini (Pharmacology 1994;48: pages 69-76) and M. Leitold, W. Fleissig and A. Merk (Arzneim-Forsch/Drug Res. 34(I), Nr. 4, 1984).
The animals were treated in oral administration with amtolmetin guacyl 50 or 100 mg/kg, 1 h before the beginning of the perfusion with histamine. The controls received only the vehicle (CMC 1%).
After anaesthesia with urethan (1.25 g/kg i.p.), the oesophagus was ligated close to the stomach. Two cannulas of polyethylene are then inserted: one was inserted in the forestomach, the second one was inserted directly into the pyloric sphincter. The stomach was flushed with saline at 37°C (1 ml/min) and the flushed liquid, collected every 15 minutes, titred at ph 7 with NaOH 10^-2 M. The acid secretion was induced by an intravenous infusion (0.1 ml/min) of histamine (30 µmol/kg/h).
The acidity is expressed as µEqH^+/15 min.

[2] = test system: gastric mucosa; experiment: Histological evaluation of the gastric mucosa by an independent laboratory; conditions: oral gavage: amtolmetin guacyl 50 mg/kg, diclofenac 7.5 mg/kg, tolmetin 66.6 mg/kg
Protocol: In order to obtain a histological evaluation of the results obtained in our laboratories, an independent laboratory was provided with identical samples of the material evaluated by us, under totally blind conditions.
Controls received the vehicle only, also by oral gavage. 4 h after the final administration the animals were killed by ether overdose and the stomachs removed, rinsed in saline and immersed in formalin 4%.

[3] = test system: gastric lesions; experiment: Clinics with before/after endoscopies; type: in vivo, man; conditions: especially when administered on an empty stomach
[4] = target: T1, COX1 (cyclooxygenase 1) (Rattus norvegicus, UniProt Q63921); experiment: Pharmacological studies in rats: COX1 inhibition; type: in vivo; conditions: studies conducted in rats
T1 construct: from tissue; host or cells: rat (in vivo pharmacological studies; tissue not given)

[5] = test system: Adjuvant arthritis; experiment: Adjuvant arthritis: joint inflammation and patellar bone erosion; type: in vivo, rats; conditions: patellar bone mass; MED 15 25, 50, 100mg/kg, piroxicam 3mg/kg
Protocol: The drugs were administered daily by oral gavage for 4 days (day 0-3); piroxicam and MED 15 were dissolved in 5% Gum arabic + 0.01% Tween 80, and administered in a volume of 0.5ml. Piroxicam was administered as 3mg/kg and MED 15 was administered as 25, 50 and 100mg/kg doses. Table 8 bis illustrating dosage regimes. L=left stifle joint, R=Right stifle joint.
Under halothane anaesthesia, rats received 200µg of heat-killed finely ground Mycobactyerium tubercolosis in 25µl (80mg/10ml sterile saline) injected intra-articulary into the left stifle joint. The contralateral joint received 25µl 0.9% sterile saline. Control animals received 25µl of 0.9% sterile saline in both knees. SGE 50µl microsyringes with a volume lock calibrated at 25µl were used with 30G stainless steel needles. Solutions were prepared sterile, and aseptic technique was used throughout, with sterilisation of syringes between groups.
The rats were killed by carbon dioxide suffocation. The body weight was noted and the skin overlying the stifle joints was divided and the joint diameters assessed in mm using Mitutoyo vernier callipers (530-312, 0.02mm).
The patellae were dissected, weighed (Sartorius, 0.01mg) and then immersed in 1ml digestion buffer (see below) to remove soft tissue.
Digestive buffer was prepared fresh to the following formula; disodium hydrogen orthophosphate 20mM, EDTA 1mM and diothiothreitol at 2mM. […]

[6] = test system: post-operative pain; experiment: Clinical trials: analgesic properties in post-operative pain; type: in vivo, man; parameters: key to Antiphlogistic activity evaluation: excellent ^++++; good ^+++; poor ^++
Protocol: As reported in Table 14, the analgesic properties of amtolmetin guacyl were tested in postoperative pain with good results. […] The peak effect is obtained only after 2 hours, and it is maintained for 6 hours.

[7] = test system: human lymphocites; experiment: Chromosome aberrations in lymphocytes cultivated in vitro; type: cell-based
[8] = test system: blood pressure and cardiovascular system; experiment: Drug safety trials on blood pressure and cardiovascular system; conditions: rat, in vivo
Description: From a toxicological viewpoint the drug offers an excellent torability profile.

[9] = test system: extra-articular rheumatism; experiment: Clinical trials: antiphlogistic activity in extra-articular rheumatism; type: in vivo, man; parameters: key: excellent ^++++; good ^+++; poor ^++
Description: In extra-articular rheumatism amtolmetin guacyl was compared with diclofenac, naproxen and piperazine propionate.

[10] = target: T2, COX2 (cyclooxygenase 2) (Rattus norvegicus, UniProt P35355); experiment: Pharmacological studies in rats: COX2 inhibition; type: in vivo; conditions: studies conducted in rats
T2 construct: from tissue; host or cells: rat (in vivo pharmacological studies; tissue not given)

[11] = test system: carrageenin-induced paw oedema; experiment: Determination of ID50, carrageenin-induced paw oedema; type: in vivo, rat; conditions: five times the oral ID50 for oedema inhibition, 2 h after carrageenin
Protocol: ID50, relative to the products under examination (considered in table 1), has been evaluated using the anti-inflammatory response to carrageenin-induced paw oedema (according to Wong et al, J Pharmacol Exp, 1973:1855; pages 127-138). The products, suspended in 1% CMC, were administered orally in a total volume of 5 ml/rat. 1 h later, 0.1 ml of 1% carrageenin sterile solution was injected into the hind subplantar aponeurosis. Volume of the paw was measured immediately prior to injection of the phlogogen and 2 h thereafter, by means of a plethysmograph. The percentage of inhibition of oedema was calculated as follows: 1 - ΔV treated/ΔV control x 100 [formula] where ΔV = final V - initial V.

[12] = test system: rheumatoid arthritis; experiment: Clinical trials: antiphlogistic activity in rheumatoid arthritis; type: in vivo, man; parameters: key to Antiphlogistic activity evaluation: excellent ^++++; good ^+++; poor ^++
Description: Amtolmetin guacyl was compared with ibuprofen, indomethacin, piroxicam and tolmetin.

T2 sequence (P35355 18-604): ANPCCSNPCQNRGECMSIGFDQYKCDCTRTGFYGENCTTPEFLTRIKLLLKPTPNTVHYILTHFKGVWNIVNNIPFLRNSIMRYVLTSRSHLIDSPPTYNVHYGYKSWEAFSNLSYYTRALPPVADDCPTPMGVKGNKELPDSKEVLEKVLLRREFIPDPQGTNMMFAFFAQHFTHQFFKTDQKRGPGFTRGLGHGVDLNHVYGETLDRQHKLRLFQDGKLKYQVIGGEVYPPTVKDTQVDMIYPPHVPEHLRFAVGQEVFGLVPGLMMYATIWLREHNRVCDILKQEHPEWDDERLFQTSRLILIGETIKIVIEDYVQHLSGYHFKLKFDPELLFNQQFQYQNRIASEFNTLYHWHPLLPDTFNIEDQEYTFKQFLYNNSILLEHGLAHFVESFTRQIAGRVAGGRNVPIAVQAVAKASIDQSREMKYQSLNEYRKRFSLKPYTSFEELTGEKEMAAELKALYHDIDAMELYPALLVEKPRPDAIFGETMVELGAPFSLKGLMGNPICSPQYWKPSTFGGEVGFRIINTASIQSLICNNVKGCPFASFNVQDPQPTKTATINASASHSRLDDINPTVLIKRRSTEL
T1 sequence (Q63921 27-602): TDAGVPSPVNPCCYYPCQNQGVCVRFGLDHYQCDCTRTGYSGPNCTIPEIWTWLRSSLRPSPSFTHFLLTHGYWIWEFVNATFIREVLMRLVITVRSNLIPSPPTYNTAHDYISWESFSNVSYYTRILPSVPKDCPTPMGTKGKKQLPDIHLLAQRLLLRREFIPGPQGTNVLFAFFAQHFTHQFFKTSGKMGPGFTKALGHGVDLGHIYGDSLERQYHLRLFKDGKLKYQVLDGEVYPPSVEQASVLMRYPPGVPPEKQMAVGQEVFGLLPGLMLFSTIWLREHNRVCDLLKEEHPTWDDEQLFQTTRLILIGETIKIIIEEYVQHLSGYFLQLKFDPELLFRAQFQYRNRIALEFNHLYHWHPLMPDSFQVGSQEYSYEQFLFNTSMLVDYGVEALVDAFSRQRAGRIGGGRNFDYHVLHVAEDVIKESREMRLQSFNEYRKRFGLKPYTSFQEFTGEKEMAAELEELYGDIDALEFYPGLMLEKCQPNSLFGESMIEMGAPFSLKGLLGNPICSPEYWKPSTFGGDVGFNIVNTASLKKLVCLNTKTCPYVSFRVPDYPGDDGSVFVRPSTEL

## COc1ccccc1OC(=O)CNC(=O)Cc1ccc(C(=O)c2ccc(C)cc2)n1C [amtolmetin guacyl, 2-methoxyphenyl-1-methyl-5p-methylbenzoylpyrrol-2-acetamido acetate]
[1]; 50 mg/kg oral 1 h before histamine perfusion, time 0 min
  acidity: 4 µEqH^+/15'
[1]; 50 mg/kg oral 1 h before histamine perfusion, time 15 min
  acidity: 4 µEqH^+/15'
[1]; 50 mg/kg oral 1 h before histamine perfusion, time 30 min
  acidity: 5 µEqH^+/15'
[1]; 50 mg/kg oral 1 h before histamine perfusion, time 45 min
  acidity: 11 µEqH^+/15'
[1]; 50 mg/kg oral 1 h before histamine perfusion, time 60 min
  acidity: 15 µEqH^+/15'
[1]; 50 mg/kg oral 1 h before histamine perfusion, time 75 min
  acidity: 17 µEqH^+/15'
[1]; 50 mg/kg oral 1 h before histamine perfusion, time 90 min
  acidity: 19 µEqH^+/15'
[1]; 50 mg/kg oral 1 h before histamine perfusion, time 105 min
  acidity: 18.5 µEqH^+/15'
[1]; 50 mg/kg oral 1 h before histamine perfusion, time 120 min
  acidity: 22 µEqH^+/15'
[1]; 50 mg/kg oral 1 h before histamine perfusion, time 135 min
  acidity: 20 µEqH^+/15'
[1]; 100 mg/kg oral 1 h before histamine perfusion, time 0 min
  acidity: 8 µEqH^+/15'
[1]; 100 mg/kg oral 1 h before histamine perfusion, time 15 min
  acidity: 7 µEqH^+/15'
[1]; 100 mg/kg oral 1 h before histamine perfusion, time 30 min
  acidity: 9 µEqH^+/15'
[1]; 100 mg/kg oral 1 h before histamine perfusion, time 45 min
  acidity: 11 µEqH^+/15'
[1]; 100 mg/kg oral 1 h before histamine perfusion, time 60 min
  acidity: 12 µEqH^+/15'
[1]; 100 mg/kg oral 1 h before histamine perfusion, time 75 min
  acidity: 13 µEqH^+/15'
[1]; 100 mg/kg oral 1 h before histamine perfusion, time 90 min
  acidity: 14 µEqH^+/15'
[1]; 100 mg/kg oral 1 h before histamine perfusion, time 105 min
  acidity: 15 µEqH^+/15'
[1]; 100 mg/kg oral 1 h before histamine perfusion, time 120 min
  acidity: 13 µEqH^+/15'
[1]; 100 mg/kg oral 1 h before histamine perfusion, time 135 min
  acidity: 14 µEqH^+/15'
[2]
  Histology: no histological lesions
[2]; single animals
  Macroscopic findings: 0
  Microscopic findings: 0
[3]
  induction of gastric lesions: not to induce gastric lesions
[4]
  inhibition of COX1: inhibition
[5]
  protection against bone loss: dose dependent protective effect
[6]
  Antiphlogistic activity evaluation: ^++++
  time for which the effect is maintained: 6 h
[6]; 1200mg, 100 patients
  Duration: 360 min
  Latency: 30 min
  Max. time effect: 180 min
[6]; following administration
  time at which the antalgic effect is already evaluable: 30 '
[7]
  chromosomic aberrations: absence of amtolmetin guacyl-related damage
[8]
  effects on blood pressure and on the cardiovascular system: absence of effects on blood pressure and on the cardiovascular system
[9]
  Antiphlogistic activity evaluation: ^+++
[10]
  inhibition of COX2: inhibition
[11]
  Ratio to rat dosage (mg/kg) (ID50 mg/kg x5): 100 mg/kg
[12]; 150 patients, 30 days, versus Ibuprofen, Indomethacin, Piroxicam, Tolmetin
  Evaluation of antiphlogistic activity: Amtolmetin guacyl demonstrated statistical significant activity more rapid and more marked when compared to the reference NSAIDs in rheumatoid arthritis.
[12]; Rheumatoid arthritis
  Antiphlogistic activity evaluation: ^++++
